Measurements reported in patent US10428080B2, “TBK/IKK inhibitor compounds and uses thereof” (Merck Patent GmbH, priority 2015, dated 2019).
Where a name gives a salt, the structure may show the parent alone. Read-outs that look alike come from different tables or passages of the source.

Experiments:
[1] = target: T1, TBK1 (Homo sapiens, UniProt Q9UHD2); test: TBK Biochemical Assay; details: read-out: TBK1 IC50
T1 sequence (Q9UHD2 1-729): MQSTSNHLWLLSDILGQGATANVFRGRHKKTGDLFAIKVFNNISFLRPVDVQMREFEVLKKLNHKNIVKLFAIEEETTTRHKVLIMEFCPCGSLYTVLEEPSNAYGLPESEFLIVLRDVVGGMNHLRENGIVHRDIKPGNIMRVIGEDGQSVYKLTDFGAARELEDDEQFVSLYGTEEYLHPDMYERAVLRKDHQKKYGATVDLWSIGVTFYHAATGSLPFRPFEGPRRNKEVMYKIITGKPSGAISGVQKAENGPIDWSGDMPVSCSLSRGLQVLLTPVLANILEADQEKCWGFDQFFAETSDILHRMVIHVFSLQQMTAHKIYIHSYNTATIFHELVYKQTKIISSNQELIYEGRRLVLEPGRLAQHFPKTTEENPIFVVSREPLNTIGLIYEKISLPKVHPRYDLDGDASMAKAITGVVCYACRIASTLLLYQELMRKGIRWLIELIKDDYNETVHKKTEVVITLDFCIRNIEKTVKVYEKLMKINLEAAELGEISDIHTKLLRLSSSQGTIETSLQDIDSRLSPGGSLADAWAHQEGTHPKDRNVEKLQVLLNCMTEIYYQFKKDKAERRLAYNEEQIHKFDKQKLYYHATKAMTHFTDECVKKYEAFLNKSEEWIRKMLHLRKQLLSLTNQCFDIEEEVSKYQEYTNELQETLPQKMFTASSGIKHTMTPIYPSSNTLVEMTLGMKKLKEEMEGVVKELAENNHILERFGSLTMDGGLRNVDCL
Procedure, shortened: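 Caliper LabChip mobility-shift readout of substrate and product after 90 min of TBK1 reaction at 25° C and stop-buffer addition. Compounds tested in 1:4 serial dilution over 10 points from 30 uM final at 1% DMSO; staurosporine 10 uM final defines full inhibition.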

[2] = target: T2, IKKε (Homo sapiens, UniProt Q14164); test: IKKe Biochemical Assay; details: read-out: IKKε IC50
T2 sequence (Q14164 1-716): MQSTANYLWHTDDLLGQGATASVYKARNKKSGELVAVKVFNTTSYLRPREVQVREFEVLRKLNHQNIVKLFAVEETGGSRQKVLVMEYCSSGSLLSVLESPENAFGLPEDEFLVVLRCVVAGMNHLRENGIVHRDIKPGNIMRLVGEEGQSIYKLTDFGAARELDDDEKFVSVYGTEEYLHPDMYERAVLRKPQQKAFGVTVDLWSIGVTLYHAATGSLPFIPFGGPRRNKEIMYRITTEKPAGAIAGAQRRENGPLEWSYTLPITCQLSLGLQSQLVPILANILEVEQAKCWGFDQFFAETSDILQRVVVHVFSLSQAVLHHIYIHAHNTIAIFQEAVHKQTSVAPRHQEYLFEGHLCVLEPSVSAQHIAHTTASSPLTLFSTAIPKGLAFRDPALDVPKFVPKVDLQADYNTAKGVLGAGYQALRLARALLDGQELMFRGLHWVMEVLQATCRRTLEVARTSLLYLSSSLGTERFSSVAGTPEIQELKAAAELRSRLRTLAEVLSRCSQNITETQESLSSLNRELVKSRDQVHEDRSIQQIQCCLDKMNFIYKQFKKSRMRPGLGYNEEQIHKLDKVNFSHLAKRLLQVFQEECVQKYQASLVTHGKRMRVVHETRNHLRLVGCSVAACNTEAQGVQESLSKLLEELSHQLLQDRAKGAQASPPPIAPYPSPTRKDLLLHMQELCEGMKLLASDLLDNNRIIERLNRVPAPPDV
Procedure, shortened: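 Activity was measured as mobility-shift separation of phosphorylated from unphosphorylated substrate on a LabChip EZ Reader. Compound was titrated from 30 uM final in 10 points, 1:4 steps, with 1% DMSO, and enzyme plus substrate reacted 90 min at 25° C before stop buffer. Control wells held 10 uM staurosporine.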

[3] = system: phosphorylation of the IRF-3 protein in MDA-MB-468 cells; test: pIRF3 immunocytochemistry cell based assay; details: MDA-MB-468 cells, Poly(I:C) stimulation, read-out: pIRF3 IC50
Procedure, shortened: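 After 2 h stimulation with Poly(I:C) (10 ug/ml), following 1 h compound pre-treatment (10-point, 3-fold dilution, top 10 uM), MDA-MB-468 cells were fixed and stained with anti-pIRF3 antibody. pIRF3 fluorescence was normalized to PI staining or cell count on an Acumen cytometer. IC50 curves were derived from this.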

Structure (SMILES)	IC50 [1] [nM]	IC50 [2] [nM]	IC50 ([3]; Homo sapiens) [nM]	IC50 [3] [nM]
COc1cc(C(=O)N2CC3CCC2CN3C)ccc1-c1cc2nccc(-c3ccc(NC4CCOCC4)c(C#N)c3)c2o1 (stereo not drawn) [Compound 510]	< 100	< 100	< 100	–
COc1cc(C(=O)N(C)C)cnc1-c1cc2ncc(C)c(-c3ccc(NC4CCOCC4)c(C#N)n3)c2o1 [Compound 322, 6-(7-(6-cyano-5-(tetrahydro-2H-pyran-4-ylamino)pyridin-2-yl)-6-methylfuro[3,2-b]pyridin-2-yl)-5-methoxy-N,N-dimethylnicotinamide]	100 to 1000	1000 to 5000	1000 to 5000	–
COc1cc(C(=O)N(C)C)cnc1-c1cc2nccc(-c3ccc(NC4CCNC4)c(C#N)c3)c2o1 (stereo not drawn) [Compound 432, 6-(7-[3-cyano-4-[(pyrrolidin-3-yl)amino]phenyl]furo[3,2-b]pyridin-2-yl)-5-methoxy-N,N-dimethylpyridine-3-carboxamide]	< 100	< 100	< 100	–
COc1cc(C(=O)NC2C3COCC32)ccc1-c1cc2nccc(-c3ccc(OC4CCOCC4)c(C#N)c3)c2o1 (stereo not drawn) [Compound 65, 4-{7-[3-Cyano-4-(tetrahydro-pyran-4-yloxy)-phenyl]-furo[3,2-b]pyridin-2-yl}-3-methoxy-N-(3-oxa-bicyclo[3.1.0]hex-6-yl)-benzamide]	< 100	< 100	100 to 1000	–
COc1cc(-c2n[nH]c(=O)o2)ccc1-c1cc2nccc(-c3ccc(OC4CCOCC4)c(C#N)c3)c2o1 [Compound 50, 5-{2-[2-Methoxy-4-(5-oxo-4,5-dihydro-[1,3,4]oxadiazol-2-yl)-phenyl]-furo[3,2-b]pyridin-7-yl}-2-(tetrahydro-pyran-4-yloxy)-benzonitrile]	< 100	< 100	100 to 1000	–
COc1cc(C(=O)NC2CCN(C)CC2O)ccc1-c1cc2nccc(-c3ccc(OC4CCOCC4)c(C#N)c3)c2o1 (stereo not drawn) [Compound 347, 4-[7-[3-cyano-4-(oxan-4-yloxy)phenyl]furo[3,2-b]pyridin-2-yl]-N-(3-hydroxy-1-methylpiperidin-4-yl)-3-methoxybenzamide]	< 100	< 100	100 to 1000	–
COc1cc(C(=O)N2CCCCN2)cnc1-c1cc2nccc(-c3ccc(OC4CCOCC4)c(C#N)c3)c2o1 [Compound 407, 5-(2-[5-[(1,2-diazinan-1-yl)carbonyl]-3-methoxypyridin-2-yl]furo[3,2-b]pyridin-7-yl)-2-(oxan-4-yloxy)benzonitrile hydrochloride]	< 100	< 100	100 to 1000	–
N#Cc1cc(-c2ccnc3cc(-c4ccc(C(=O)NC5CN6CCC5CC6)cc4)oc23)ccc1OC1CCOCC1 (stereo not drawn) [Compound 145, N-(1-Aza-bicyclo[2.2.2]oct-3-yl)-4-{7-[3-cyano-4-(tetrahydro-pyran-4-yloxy)-phenyl]-furo[3,2-b]pyridin-2-yl}-benzamide]	< 100	< 100	100 to 1000	–
COc1cc(C(=O)NC2CN3CCC2CC3)cnc1-c1cc2nccc(-c3ccc(N4CC[C@@H](F)C4)c(C#N)c3)c2o1 (stereo partly drawn) [Compound 442, N—(R)-1-Aza-bicyclo[2.20.2]oct-3-yl-6-{7-[3-cyano-4-((R)-3-fluoro-pyrrolidin-1-yl)-phenyl]-furo[3,2-b]pyridin-2-yl}-5-methoxy-nicotinamide]	< 100	< 100	–	100 to 1000
COc1cc(C(=O)N2C3CCCC2CC3)ccc1-c1cc2nccc(-c3ccc(OC4CCOCC4)c(C#N)c3)c2o1 [Compound 509]	< 100	< 100	100 to 1000	–

Further lines, with some results ahead:

IC50 [1] [nM]	IC50 [2] [nM]	IC50 ([3]; Homo sapiens) [nM]	Structure (SMILES)	IC50 [3] [nM]
< 100	< 100	100 to 1000	COc1cc(C(=O)N(C)C)ccc1-c1cc2nccc(-c3ccc(NC4CCOC4)c(C#N)c3)c2o1 (stereo not drawn) [Compound 7]	–
100 to 1000	100 to 1000	1000 to 5000	COc1cc(C(=O)N(C)C)ccc1-c1cc2nccc(-c3ccc(NC4CC(C)(C)OC(C)(C)C4)c(C#N)c3)c2o1 [Compound 471, 4-(7-[3-cyano-4-[(2,2,6,6-tetramethyloxan-4-yl)amino]phenyl]furo[3,2-b]pyridin-2-yl)-3-methoxy-N,N-dimethylbenzamide]	–
1000 to 5000	1000 to 5000	100 to 1000	COc1cc(C(=O)N(C)C)ncc1-c1cc2nccc(-c3ccc(OC4CCN(C(C)C)C4)c(C#N)c3)c2o1 (stereo not drawn) [Compound 428, 5-[7-(3-cyano-4-[[1-(propan-2-yl)pyrrolidin-3-yl]oxy]phenyl)furo[3,2-b]pyridin-2-yl]-4-methoxy-N,N-dimethylpyridine-2-carboxamide]	–
< 100	< 100	< 100	COc1cc(C(=O)N(C)C)cnc1-c1cc2nccc(-c3ccc(NC4C5COCC54)c(C#N)c3)c2o1 (stereo not drawn) [Compound 436, 6-[7-[3-cyano-4-([3-oxabicyclo[3.1.0]hexan-6-yl]amino)phenyl]furo[3,2-b]pyridin-2-yl]-5-methoxy-N,N-dimethylpyridine-3-carboxamide]	–
< 100	< 100	100 to 1000	COc1cc(C(=O)NC2(CO)CCN(C)C2)ccc1-c1cc2nccc(-c3ccc(OC4CCOCC4)c(C#N)c3)c2o1 (stereo not drawn) [Compound 345, 4-[7-[3-cyano-4-(oxan-4-yloxy)phenyl]furo[3,2-b]pyridin-2-yl]-N-[3-(hydroxymethyl)-1-methylpyrrolidin-3-yl]-3-methoxybenzamide]	–
< 100	< 100	100 to 1000	COc1cc(C(=O)N2CCC(CO)C2)ccc1-c1cc2nccc(-c3ccc(NC4CCOCC4)c(C#N)c3)c2o1 (stereo not drawn) [Compound 91, 5-{2-[4-(3-Hydroxymethyl-pyrrolidine-1-carbonyl)-2-methoxy-phenyl]-furo[3,2-b]pyridin-7-yl}-2-(tetrahydro-pyran-4-ylamino)-benzonitrile]	–
< 100	< 100	100 to 1000	COc1cc(C(=O)NC2CC(O)C2)ccc1-c1cc2nccc(-c3ccc(OC4CCOCC4)c(C#N)c3)c2o1 (stereo not drawn) [Compound 75, 4-{7-[3-Cyano-4-(tetrahydro-pyran-4-yloxy)-phenyl]-furo[3,2-b]pyridin-2-yl}-N-(3-hydroxy-cyclobutyl)-3-methoxy-benzamide]	–
< 100	< 100	100 to 1000	COc1cc(C(=O)N2CC[C@@H](O)C2)ccc1-c1cc2nccc(-c3ccc(OC4CCOCC4)c(C#N)c3)c2o1 [Compound 43, 5-{2-[4-((R)-3-Hydroxy-pyrrolidine-1-carbonyl)-2-methoxy-phenyl]-furo[3,2-b]pyridin-7-yl}-2-(tetrahydro-pyran-4-yloxy)-benzonitrile]	–
< 100	< 100	100 to 1000	COc1cc(C(=O)N(C)CCO)cnc1-c1cc2nccc(-c3ccc(NC4CCOCC4)c(C#N)c3)c2o1 [Compound 318, 6-(7-(3-cyano-4-(tetrahydro-2H-pyran-4-ylamino)phenyl)furo[3,2-b]pyridin-2-yl)-N-(2-hydroxyethyl)-5-methoxy-N-methylnicotinamide]	–
